Measurements from patent publication US11685729B2, “C5a receptor modulators” (IDORSIA PHARMACEUTICALS LTD., priority 2018, dated 2023).
Like-named read-outs stand apart in the source and are kept apart here.

Molecular target: C5AR1 (Homo sapiens (Human), UniProt P21730)
Assay: In vitro assay: PathHunter beta-arrestin antagonist assay in CHO-K1 C5AR1 beta-arrestin cell line, stimulated with C5a agonist
[1] = read-out: C5aR IC50, CHO-K1 C5AR1 beta-arrestin cell line, 1-10 nM C5a agonist, geometric mean values

Chain of C5AR1 (P21730 whole entry): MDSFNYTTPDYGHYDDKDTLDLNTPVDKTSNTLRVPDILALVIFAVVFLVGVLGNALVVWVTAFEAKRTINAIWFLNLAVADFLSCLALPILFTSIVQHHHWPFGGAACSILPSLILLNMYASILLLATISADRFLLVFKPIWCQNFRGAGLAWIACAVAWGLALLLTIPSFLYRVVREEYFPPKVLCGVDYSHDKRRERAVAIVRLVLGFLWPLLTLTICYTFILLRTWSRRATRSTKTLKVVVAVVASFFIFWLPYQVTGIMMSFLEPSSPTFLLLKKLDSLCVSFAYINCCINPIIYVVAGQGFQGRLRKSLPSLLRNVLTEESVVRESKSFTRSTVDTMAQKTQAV
Method: 5 μl Antagonist at 6-fold end concentration or DMSO control is added to assay medium and subsequently 5 μl 1-10 nM C5a agonist at 6 fold end concentration. Cells are centrifuged for 1 min at 1000 rpm and incubated for 1.5 hour in at 37° C. Plates are equilibrated at room temperature for several minutes before adding 12 μI/well Detection Reagent (PathHunter Detection Kit, DiscoverX, Cat #93-0001). Plates are centrifuged for 1 min at 1000 rpm and incubated for 45 minutes at RT before being measured on a Fluostar Optima, BMG Labtech. IC50 values are calculated from a serial dilution range of antagonist using inhouse software and given in nmol/l.
The calculated IC50 values may fluctuate depending on the daily cellular assay performance. […] Average IC50 values from several measurements are given as geometric mean values.

Row | IC50 [1] [nM] | IC50 [nM] | Structure (SMILES)
1 | 205 |  | Cc1cccc(F)c1N1CCC(N2C(=O)N(Cc3ccccc3C(F)(F)F)c3ccccc3C2C)CC1 (racemic) [Example 70, 3-[1-(2-Fluoro-6-methyl-phenyl)-piperidin-4-yl]-4-methyl-1-(2-trifluoromethyl-benzyl)-3,4-dihydro-1H-quinazolin-2-one]
2 |  | 59 | Cc1cccc(F)c1N1CCC(N2C(=O)N(Cc3ccccc3C(F)(F)F)c3ccccc3C2C)CC1 (single isomer, unassigned) [Example 71, (S)- or (R)-3-[1-(2-Fluoro-6-methyl-phenyl)-piperidin-4-yl]-4-methyl-1-(2-trifluoromethyl-benzyl)-3,4-dihydro-1H-quinazolin-2-one]
3 | 944 |  | COc1ccccc1N1CCC(N2Cc3cccc(OC)c3N(Cc3ccccc3C(F)(F)F)C2=O)CC1 [Example 4, 8-Methoxy-3-[1-(2-methoxy-phenyl)-piperidin-4-yl]-1-(2-trifluoromethyl-benzyl)-3,4-dihydro-1H-quinazolin-2-one]
4 | 300 |  | COc1cccc(F)c1N1CCC(N2Cc3cccc(OC)c3N(Cc3ccccc3C(F)(F)F)C2=O)CC1 [Example 5, 3-[1-(2-Fluoro-6-methoxy-phenyl)-piperidin-4-yl]-8-methoxy-1-(2-trifluoromethyl-benzyl)-3,4-dihydro-1H-quinazolin-2-one]
5 | 245 |  | COc1ccccc1N1CCC(N2Cc3ccccc3N(Cc3ccccc3C(F)(F)F)C2=O)CC1 [Example 6, 3-[1-(2-Methoxy-phenyl)-piperidin-4-yl]-1-(2-trifluoromethyl-benzyl)-3,4-dihydro-1H-quinazolin-2-one]
6 | 58 |  | COc1cccc(F)c1N1CCC(N2Cc3ccccc3N(Cc3ccccc3C(F)(F)F)C2=O)CC1 [Example 7, 3-[1-(2-Fluoro-6-methoxy-phenyl)-piperidin-4-yl]-1-(2-trifluoromethyl-benzyl)-3,4-dihydro-1H-quinazolin-2-one]
7 | 104 |  | COc1cccc2c1N(Cc1ccccc1C(F)(F)F)C(=O)N([C@@H]1CCN(c3c(F)cccc3F)C1)C2 [Example 8, 3-[(R)-1-(2,6-Difluoro-phenyl)-pyrrolidin-3-yl]-8-methoxy-1-(2-trifluoromethyl-benzyl)-3,4-dihydro-1H-quinazolin-2-one]
8 | 25 |  | COc1cccc2c1N(Cc1ccccc1C(F)(F)F)C(=O)N([C@@H]1CCN(c3c(C)cccc3C)C1)C2 [Example 9, 3-[(R)-1-(2,6-Dimethyl-phenyl)-pyrrolidin-3-yl]-8-methoxy-1-(2-trifluoromethyl-benzyl)-3,4-dihydro-1H-quinazolin-2-one]
9 | 1870 |  | COc1ccccc1N1CC[C@@H](N2Cc3cccc(OC)c3N(Cc3ccccc3C(F)(F)F)C2=O)C1 [Example 10, 8-Methoxy-3-[(R)-1-(2-methoxy-phenyl)-pyrrolidin-3-yl]-1-(2-trifluoromethyl-benzyl)-3,4-dihydro-1H-quinazolin-2-one]
10 | 219 |  | COc1cccc(F)c1N1CC[C@@H](N2Cc3cccc(OC)c3N(Cc3ccccc3C(F)(F)F)C2=O)C1 [Example 11, 3-[(R)-1-(2-Fluoro-6-methoxy-phenyl)-pyrrolidin-3-yl]-8-methoxy-1-(2-trifluoromethyl-benzyl)-3,4-dihydro-1H-quinazolin-2-one]
11 | 679 |  | Cn1nc(C2CC2)c(Cl)c1N1CCC(N2Cc3ccccc3N(Cc3ccccc3C(F)(F)F)C2=O)CC1 [Example 12, 3-[1-(4-Chloro-5-cyclopropyl-2-methyl-2H-pyrazol-3-yl)-piperidin-4-yl]-1-(2-trifluoromethyl-benzyl)-3,4-dihydro-1H-quinazolin-2-one]
12 | 627 |  | Cc1cccc(C)c1N1CC[C@H](N2Cc3ccccc3N(Cc3ccccc3C(F)(F)F)C2=O)C1 [Example 14, 3-[(S)-1-(2,6-Dimethyl-phenyl)-pyrrolidin-3-yl]-1-(2-trifluoromethyl-benzyl)-3,4-dihydro-1H-quinazolin-2-one]
13 | 847 |  | O=C1N(Cc2ccccc2C(F)(F)F)c2ccccc2CN1[C@H]1CCN(c2c(F)cccc2F)C1 [Example 15, 3-[(S)-1-(2,6-Difluoro-phenyl)-pyrrolidin-3-yl]-1-(2-trifluoromethyl-benzyl)-3,4-dihydro-1H-quinazolin-2-one]
14 | 635 |  | COc1ccccc1N1CC[C@H](N2Cc3ccccc3N(Cc3ccccc3C(F)(F)F)C2=O)C1 [Example 16, 3-[(S)-1-(2-Methoxy-phenyl)-pyrrolidin-3-yl]-1-(2-trifluoromethyl-benzyl)-3,4-dihydro-1H-quinazolin-2-one]
15 | 437 |  | COc1cccc(F)c1N1CC[C@H](N2Cc3ccccc3N(Cc3ccccc3C(F)(F)F)C2=O)C1 [Example 17, 3-[(S)-1-(2-Fluoro-6-methoxy-phenyl)-pyrrolidin-3-yl]-1-(2-trifluoromethyl-benzyl)-3,4-dihydro-1H-quinazolin-2-one]
16 | 28 |  | Cc1cccc(C)c1N1CC[C@@H](N2Cc3ccccc3N(Cc3ccccc3C(F)(F)F)C2=O)C1 [Example 18, 3-[(R)-1-(2,6-Dimethyl-phenyl)-pyrrolidin-3-yl]-1-(2-trifluoromethyl-benzyl)-3,4-dihydro-1H-quinazolin-2-one]

Row | IC50 [1] [nM] | IC50 [nM] | Structure (SMILES)
17 | 53 |  | O=C1N(Cc2ccccc2C(F)(F)F)c2ccccc2CN1[C@@H]1CCN(c2c(F)cccc2F)C1 [Example 19, 3-[(R)-1-(2,6-Difluoro-phenyl)-pyrrolidin-3-yl]-1-(2-trifluoromethyl-benzyl)-3,4-dihydro-1H-quinazolin-2-one]
18 | 181 |  | COc1ccccc1N1CC[C@@H](N2Cc3ccccc3N(Cc3ccccc3C(F)(F)F)C2=O)C1 [Example 20, 3-[(R)-1-(2-Methoxy-phenyl)-pyrrolidin-3-yl]-1-(2-trifluoromethyl-benzyl)-3,4-dihydro-1H-quinazolin-2-one]
19 | 37 |  | COc1cccc(F)c1N1CC[C@@H](N2Cc3ccccc3N(Cc3ccccc3C(F)(F)F)C2=O)C1 [Example 21, 3-[(R)-1-(2-Fluoro-6-methoxy-phenyl)-pyrrolidin-3-yl]-1-(2-trifluoromethyl-benzyl)-3,4-dihydro-1H-quinazolin-2-one]
20 | 52 |  | COc1cccc(C)c1N1CC[C@@H](N2Cc3cccc(OC)c3N(Cc3ccccc3C(F)(F)F)C2=O)C1 [Example 22, 8-Methoxy-3-[(R)-1-(2-methoxy-6-methyl-phenyl)-pyrrolidin-3-yl]-1-(2-trifluoromethyl-benzyl)-3,4-dihydro-1H-quinazolin-2-one]
21 | 32 |  | COc1cccc(C)c1N1CCC(N2Cc3ccccc3N(Cc3ccccc3C(F)(F)F)C2=O)CC1 [Example 23, 3-[1-(2-Methoxy-6-methyl-phenyl)-piperidin-4-yl]-1-(2-trifluoromethyl-benzyl)-3,4-dihydro-1H-quinazolin-2-one]
22 | 383 |  | COc1cccc(OC)c1N1CC[C@@H](N2Cc3cccc(OC)c3N(Cc3ccccc3C(F)(F)F)C2=O)C1 [Example 24, 3-[(R)-1-(2,6-Dimethoxy-phenyl)-pyrrolidin-3-yl]-8-methoxy-1-(2-trifluoromethyl-benzyl)-3,4-dihydro-1H-quinazolin-2-one]
23 | 497 |  | COc1cccc(C)c1N1CCC(N2Cc3cccc(OC)c3N(Cc3ccccc3C(F)(F)F)C2=O)CC1 [Example 25, 8-Methoxy-3-[1-(2-methoxy-6-methyl-phenyl)-piperidin-4-yl]-1-(2-trifluoromethyl-benzyl)-3,4-dihydro-1H-quinazolin-2-one]
24 | 35 |  | Cc1cccc(F)c1N1CC[C@@H](N2Cc3ccccc3N(Cc3ccccc3C(F)(F)F)C2=O)C1 [Example 26, 3-[(R)-1-(2-Fluoro-6-methyl-phenyl)-pyrrolidin-3-yl]-1-(2-trifluoromethyl-benzyl)-3,4-dihydro-1H-quinazolin-2-one]
25 | 37 |  | COc1cccc(C)c1N1CC[C@@H](N2Cc3ccccc3N(Cc3ccccc3C(F)(F)F)C2=O)C1 [Example 27, 3-[(R)-1-(2-Methoxy-6-methyl-phenyl)-pyrrolidin-3-yl]-1-(2-trifluoromethyl-benzyl)-3,4-dihydro-1H-quinazolin-2-one]
26 | 287 |  | Cc1ccnc(C)c1N1CCC(N2Cc3ccccc3N(Cc3ccccc3C(F)(F)F)C2=O)CC1 [Example 28, 3-(2′,4′-Dimethyl-3,4,5,6-tetrahydro-2H-[1,3′]bipyridinyl-4-yl)-1-(2-trifluoromethyl-benzyl)-3,4-dihydro-1H-quinazolin-2-one]
27 | 35 |  | COc1nccc(C)c1N1CCC(N2Cc3ccccc3N(Cc3ccccc3C(F)(F)F)C2=O)CC1 [Example 29, 3-(2′-Methoxy-4′-methyl-3,4,5,6-tetrahydro-2H-[1,3′]bipyridinyl-4-yl)-1-(2-trifluoromethyl-benzyl)-3,4-dihydro-1H-quinazolin-2-one]
28 | 45 |  | Cc1ccnc(F)c1N1CCC(N2Cc3ccccc3N(Cc3ccccc3C(F)(F)F)C2=O)CC1 [Example 30, 3-(2′-Fluoro-4′-methyl-3,4,5,6-tetrahydro-2H-[1,3′]bipyridinyl-4-yl)-1-(2-trifluoromethyl-benzyl)-3,4-dihydro-1H-quinazolin-2-one]
29 | 37 |  | COc1nccc(C)c1N1CC[C@@H](N2Cc3ccccc3N(Cc3ccccc3C(F)(F)F)C2=O)C1 [Example 31, 3-[(R)-1-(2-Methoxy-4-methyl-pyridin-3-yl)-pyrrolidin-3-yl]-1-(2-trifluoromethyl-benzyl)-3,4-dihydro-1H-quinazolin-2-one]
30 | 280 |  | Cc1ccnc(C)c1N1CC[C@@H](N2Cc3ccccc3N(Cc3ccccc3C(F)(F)F)C2=O)C1 [Example 32, 3-[(R)-1-(2,4-Dimethyl-pyridin-3-yl)-pyrrolidin-3-yl]-1-(2-trifluoromethyl-benzyl)-3,4-dihydro-1H-quinazolin-2-one]
31 | 43 |  | Cc1ccnc(F)c1N1CC[C@@H](N2Cc3ccccc3N(Cc3ccccc3C(F)(F)F)C2=O)C1 [Example 33, 3-[(R)-1-(2-Fluoro-4-methyl-pyridin-3-yl)-pyrrolidin-3-yl]-1-(2-trifluoromethyl-benzyl)-3,4-dihydro-1H-quinazolin-2-one]
32 | 116 |  | COc1ccccc1CN1C(=O)N([C@@H]2CCN(c3c(C)cccc3C)C2)Cc2ccccc21 [Example 34, 3-[(R)-1-(2,6-Dimethyl-phenyl)-pyrrolidin-3-yl]-1-(2-methoxy-benzyl)-3,4-dihydro-1H-quinazolin-2-one]
